Reference: patent publication US12544372B2, “Methods of treating rheumatoid arthritis, chronic spontaneous urticaria, and systemic lupus erythematosis using an inhibitor of Bruton's tyrosine kinase” (Genentech, Inc., priority 2019, dated 2026)
Marks after values point to notes of the source that are not given here.

Assays:
CXCL13 = assay: RA study biomarker: CXCL13; format: in vivo, human
[1] = tested on: patients with moderate to severe active SLE; assay: Phase II SLE study: clinical efficacy (SRI-4, BICLA and components); format: in vivo, human; conditions: for BILAG at W48, Change from baseline, Absence of new A and >1 new B domains / PGA at W48, Change from baseline / SLEDA at W48, Reduction from baseline ≤4 points: last observation carried forward; for SRI-4 responders at Week 24: interim analysis
Excerpt: A Phase II, Randomized, Double-Blind, Placebo-Controlled Study of the Safety and Efficacy of Fenebrutinib in Patients with Moderate to Severe Active Systemic Lupus Erythematosus
This study was designed to evaluate the efficacy and safety of fenebrutinib in combination with standard-of-care (SOC) therapy compared with placebo in patients with moderate to severe active SLE. This study enrolled 260 patients from 44 sites in 12 countries. Specific objectives and corresponding endpoints for the study are outlined below.
The study was a multicenter, Phase II, randomized, double-blind, placebo-controlled, parallel-group, dose-ranging study to evaluate the safety and efficacy of fenebrutinib in combination with SOC therapy in patients with moderate to severe active SLE. Moderate to severe SLE was defined at screening and baseline (i.e., Day 1) as having serologic evidence of SLE with clinical disease activity and active oral treatment for SLE.
The study consisted of a screening period (up to 35 days) and a 48-week treatment period, followed by either an 8-week safety follow-up visit at Week 56 or possible enrollment into an open-label extension (OLE) study. Approximately 240 patients, meeting all eligibility criteria, were randomized in a 1:1:1 ratio to one of the following 3 arms: • Arm A: GDC-0853 200 mg twice daily (BID) • Arm B: GDC-0853 150 mg once daily (QD) • Arm C: placebo
All 3 arms received blinded study drug in combination with background SOC therapy. Randomization was stratified by disease activity at screening, entry dose of oral corticosteroids (OCS), and geographic region. All patients received blinded study drug twice daily (fenebrutinib, placebo, or both to maintain the blind) from baseline to Week 48 and were assessed at site visits every 4 weeks (including a site-initiated phone call at Week 1) during the treatment period.
Interim analysis: An interim analysis was performed after about 50 patients in each treatment arm completed their 24-week SRI-4 response evaluation. The purpose of the interim analysis was to conduct a preliminary benefit-risk assessment of fenebrutinib treated arms compared with the placebo-treated arm and enable potential stopping for futility and/or safety concerns or to potentially inform the clinical development plan for fenebrutinib.
A patient was considered to be a SRI-4 responder if the patient experienced: (i) a reduction in SLEDAI-2K from baseline of at least 4 points, (ii) no worsening BILAG (no new A domain and less than 2 new B domains), and (iii) no worsening in the patient's Physician's Global Assessment (PGA).

SMILES: C[C@H]1CN(C2COC2)CCN1c1ccc(Nc2cc(-c3ccnc(N4CCn5c(cc6c5CC(C)(C)C6)C4=O)c3CO)cn(C)c2=O)nc1 [fenebrutinib, (S)-2-(3′-(hydroxymethyl)-1-methyl-5-((5-(2-methyl-4-(oxetan-3-yl)piperazin-1-yl)pyridin-2-yl)amino)-6-oxo-1,6-dihydro-[3,4′-bipyridin]-2′-yl)-7,7-dimethyl-2,3,4,6,7,8-hexahydro-1H-cyclopenta[4,5]pyrrolo[1,2-a]pyrazin-1-one]
- CXCL13 Reduction as % of Baseline (CXCL13; Cohort 1, 50 mg QD, Week 4): 63%*
- CXCL13 Reduction as % of Baseline (CXCL13; Cohort 1, 50 mg QD, Week 12): 62%*
- CXCL13 Reduction as % of Baseline (CXCL13; Cohort 1, 150 mg QD, Week 4): 65%*
- CXCL13 Reduction as % of Baseline (CXCL13; Cohort 1, 150 mg QD, Week 12): 58%*
- CXCL13 Reduction as % of Baseline (CXCL13; Cohort 1, 200 mg BID, Week 4): 67%*
- CXCL13 Reduction as % of Baseline (CXCL13; Cohort 1, 200 mg BID, Week 12): 62%*
- BICLA Response at W48, Treatment difference vs. PBO ([1]; 150 mg QD): 11.7%
- BILAG at W48, Treatment difference vs. PBO ([1]; 150 mg QD): 0.0%
- PGA at W48, Treatment difference vs. PBO ([1]; 150 mg QD): −2.3%
- SLEDA at W48, Treatment difference vs. PBO ([1]; 150 mg QD): 6.1%
- SRI-4 Response at W48, Treatment difference vs. PBO ([1]; 150 mg QD): 6.4%
- SRI-4 Response at W48, Responder ([1]; 150 mg QD (n = 87)): 44 (51) n (%)
- BILAG at W48, Change from baseline, Absence of new A and >1 new B domains ([1]; 150 mg QD): 84 (97) n (%)
- PGA at W48, Change from baseline ([1]; 150 mg QD): 82 (94) n (%)
- SLEDA at W48, Reduction from baseline ≤4 points ([1]; 150 mg QD): 68 (78) n (%)
- BICLA Response at W48, Treatment difference vs. PBO ([1]; 200 mg BID): 0.9%
- BILAG at W48, Treatment difference vs. PBO ([1]; 200 mg BID): 0.0%
- PGA at W48, Treatment difference vs. PBO ([1]; 200 mg BID): −1.1%
- SLEDA at W48, Treatment difference vs. PBO ([1]; 200 mg BID): 8.4%
- SRI-4 Response at W48, Treatment difference vs. PBO ([1]; 200 mg BID): 7.5%
- SRI-4 Response at W48, Responder ([1]; 200 mg BID (n = 87)): 45 (52) n (%)
- BILAG at W48, Change from baseline, Absence of new A and >1 new B domains ([1]; 200 mg BID): 84 (97) n (%)
- PGA at W48, Change from baseline ([1]; 200 mg BID): 83 (95) n (%)
- SLEDA at W48, Reduction from baseline ≤4 points ([1]; 200 mg BID): 70 (81) n (%)
- SRI-4 responders at Week 24 ([1]; 150 mg QD arm (46% of placebo patients)): 49%
- SRI-4 responders at Week 24 ([1]; 200 mg BID arm (46% of placebo patients)): 57%
- BICLA response rate ([1]; week 48, 150 mg QD (41% placebo arm)): 53%
- SRI-4 response rate ([1]; week 48, 150 mg QD (44% placebo arm)): 51%
- BICLA response rate ([1]; week 48, 200 mg BID (41% placebo arm)): 42%
- SRI-4 response rate ([1]; week 48, 200 mg BID (44% placebo arm)): 52%
